Patent US9375000B2, “Pesticidal arylpyrrolidines” (Bayer Intellectual Property GmbH, priority 2011, dated 2016)
Read-outs that look alike come from different tables or passages of the source.

Assays:
[1] = tested on: Tobacco Cutworm (Spodoptera litura) Larvae; experiment: Tobacco cutworm (Spodoptera litura) larvae, sweet potato leaf dip test; type: in vivo; settings: dead larvae after 7 days
Description: (§1) Unless not mentioned otherwise, the test solutions were prepared as follows:
(§2) Solvent: 3 parts by weight Dimethylformamide
(§3) Emulsifier: 1 part by weight Polyoxyethylene alkyl phenyl ether
(§4) In order to make an appropriate formulation of an active compound, 1 part by weight of the active compound is mixed with the above mentioned amount of solvent and emulsifier and the mixture is diluted with water to a prescribed concentration. Ammonium salt or ammonium salt and penetration enhancer in a dosage of 1000 ppm are added to the desired concentration if necessary.
Leaves of sweet potato were immersed in the test solution at the appropriate concentration, and the leaves were dried in air. The leaves were then placed in a petri dish having a diameter of 9 cm, and ten Spodoptera litura at third instar larvae were released therein. The petri dishes were placed in a temperature-controlled chamber at 25° C. After 2 days and 4 days more sweet potato leaves were added. After 7 days, the number of dead larvae was counted to calculate the insecticidal activity. An insecticidal activity of 100% means that all larvae were killed, whereas an insecticidal activity of 0% means that no larva was killed. In the current test, the results of two petri dishes for each treatment were averaged.

[2] = log P by HPLC on reversed phase columns (EEC directive 79/831 Annex V.A8); type: physicochemical
Description: Calibration was done with not branched alkan2-ones (with 3 to 16 carbon atoms) with known log P-values (measurement of log P values using retention times with linear interpolation between successive alkanones). lambda-maX-values were determined using UV-spectra from 200 nm to 400 nm and the peak values of the chromatographic signals.

[3] = tested on: Two-Spotted Spider Mite (Tetranychus urticae); experiment: Two-spotted spider mite (Tetranychus urticae) spray test on kidney bean; type: in vivo; settings: after 7 days
Method in brief: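 Kidney bean plants at the two-leaf stage carried 50-100 adult mites and were sprayed one day later with compound in DMF/polyoxyethylene alkyl phenyl ether diluted in water. Ammonium salt and penetration enhancer at 1000 ppm were added if needed. Acaricidal activity (% mites killed) was scored after 7 days in a greenhouse.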

[4] = tested on: Cucurbit Leaf Beetle (Aulacophora femoralis); experiment: Cucurbit leaf beetle (Aulacophora femoralis) cucumber leaf dip test; type: in vivo; settings: after 7 days
Method in brief: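 Cucumber leaves dipped in compound formulated with DMF and polyoxyethylene alkyl phenyl ether, diluted in water, with ammonium salt or ammonium salt plus penetration enhancer at 1000 ppm added if necessary; dried leaves placed on sterilized soil with five second-instar larvae. Kept at 25° C; larval mortality counted after 7 days.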

Thrips palmi = Thrips palmi spray test (THRIPL); type: in vivo; settings: after 6 days
Method in brief: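 Cucumber seedlings sprayed with compound formulated in DMF/polyoxyethylene alkyl phenyl ether and diluted in water, ammonium salt ± penetration enhancer at 1000 ppm added if needed. About 100 T. palmi eggs attached, plants held caged at 100% humidity, 23 °C. Percent activity scored from feeding damage after 6 days, 100 = no damage, 0 = as untreated.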

[5] = tested on: Larvae of Spodoptera litura; experiment: Larvae of Spodoptera litura, method using artificial feeds; type: in vivo; settings: artificial feed, after 7 days
Method in brief: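 Compound formulated in dimethylformamide with polyoxyethylene alkyl phenyl ether emulsifier, water-diluted and poured onto artificial diet. Five 3rd-instar Spodoptera litura larvae per cup, held at 25° C and 50-60% humidity. Mortality after 7 days expressed as pesticidal ratio.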

[6] = tested on: green peach aphids (Myzus persicae); experiment: Myzus persicae spray test (MYZUPE); type: in vivo; settings: after 6 days
Description: as §1, §2, §3, §4
1 day before treatment, green peach aphids (Myzus persicae) are inoculated onto the testing plants, about 50 heads per leaf, 100 for 1 pot. A paper label is placed on each pot. Solutions are sprayed directly onto both insects and plants. After drying, the pots are placed in the greenhouse at 20° C.-25° C. After 6 days mortality in % is determined. An insecticidal activity of 100% means that all aphids were killed, whereas an insecticidal activity of 0% means that no aphid was killed.

[7] = tested on: Nymphs of the tick Amblyomma hebraeum; experiment: Amblyomma hebraeum test (AMBYHE), nymph immersion; type: in vivo; settings: application rate 100 ppm; immersion one minute; 42 days
Description: Solvent: Dimethyl sulfoxide
(§5) To produce a suitable preparation of active compound, 10 mg of active compound are dissolved in 0.5 ml solvent, and the concentrate is diluted with water to the desired concentration. Nymphs of the tick Amblyomma hebraeum are placed in perforated plastic beakers and immersed in aqueous compound solution for one minute. Ticks are transferred to a filter paper in a petridish and incubated in a climate chamber for 42 days. After the specified period of time, mortality in % is determined. 100% means that all the ticks have been killed; 0% means that none of the ticks have been killed.

Ctenocephalides felis = experiment: Test against Ctenocephalides felis (CTECFE), blood feeding; type: in vivo; settings: application rate 100 ppm in cattle blood; after 2 days
Description: (§6) Solvent: dimethyl sulfoxide
To produce a suitable preparation of active compound, 10 mg of active compound are dissolved in 0.5 ml solvent, and the concentrate is diluted with cattle blood to the desired concentration. Approximately 20 adult unfed (Ctenocepahlides felis) are placed in flea chambers. The blood chamber, sealed with parafilm on the bottom, are filled with cattle blood supplied with compound solution and placed on top of the flea chamber, so that the fleas are able to suck the blood. The blood chamber is heated to 37° C. whereas the flea chamber is kept at room temperature.
After 2 days mortality in % is determined. 100% means that all the fleas have been killed; 0% means that none of the fleas have been killed.

Musca domestica = experiment: Test against Musca domestica; type: in vivo; settings: application rate 100 ppm; after 2 days
Description: as §6
To produce a suitable preparation of active compound, 10 mg of active compound are dissolved in 0.5 ml solvent, and the concentrate is diluted with water to the desired concentration. Prior to the assay, a piece of kitchen sponge is soaked with a mixture of sugar and compound solution and placed into a container. 10 adults (Musca domestica) are placed into the container and closed with a perforated lid. After 2 days mortality in % is determined. 100% means that all the flies have been killed; 0% means that none of the flies have been killed.

[8] = tested on: adult engorged female Boophilus microplus ticks; experiment: Test against Boophilus microplus (dip); type: in vivo; settings: application rate 100 ppm; dip; after 7 days
Description: as §6
as §5, with “Eight to ten adult engorged female Boophilus microplus ticks” for “Nymphs of the tick Amblyomma hebraeum”, “plastic tray. Egg deposition of fertile eggs is monitored after.” for “petridish and incubated in a climate chamber for 42 days.”, “7 days” for “the specified period of time,”

[9] = active compound concentration 4 ppm
[10] = active compound concentration 20 ppm
[11] = active compound concentration 100 ppm

Row | Structure (SMILES) | insecticidal activity [1, 9] [%] | acaricidal activity [3, 9] [%] | insecticidal activity [4, 10] [%] | insecticidal activity (pesticidal ratio) [5, 9] [%] | insecticidal activity (pesticidal ratio) [5, 10] [%] | insecticidal activity [4, 9] [%] | insecticidal activity (by feeding damage degree) (Thrips palmi; [10]) [%] | activity (mortality) [7] [%] | further results
1 | O=C(NCc1ccc(N2CCC(c3cc(Cl)cc(Cl)c3)(C(F)(F)F)C2O)cc1F)C1CC1 (mixture of isomers) [A1-99] | 100 | 90 | 100 | – | – | – | – | – | log P [2]: 3.47
2 | COCCC(=O)NCc1ccc(N2CCC(c3cc(C(F)(F)F)cc(C(F)(F)F)c3)(C(F)(F)F)C2O)nc1Br (mixture of isomers) [A3-162] | – | – | – | – | – | – | – | – | insecticidal activity [1, 10]: 100%; logP [2]: 3.71; acaricidal activity [3, 10]: 90%
3 | O=C(NCc1ccc(N2CCC(c3cc(Cl)c(F)c(Cl)c3F)(C(F)(F)F)C2O)nc1C(F)(F)F)C1CC1 (mixture of isomers) [A3-214] | – | 100 | 100 | 100 | 100 | 100 | – | – | insecticidal activity (by feeding damage degree) (Thrips palmi; [9]): 90%; insecticidal activity (mortality) [6, 10]: 100%; acaricidal activity [3, 10]: 100%
4 | O=C(NCc1ccc(N2CCC(c3ccc(F)c(C(F)(F)F)c3)(C(F)(F)F)C2O)nc1C(F)(F)F)C1CC1 (mixture of isomers) [A3-236] | – | 100 | 100 | 100 | 100 | 100 | 98 | 100 | –
5 | CCC(=O)NCc1ccc(N2CCC(c3cc(F)cc(C(F)(F)F)c3)(C(F)(F)F)C2O)nc1C(F)(F)F (mixture of isomers) [A3-244] | – | 90 | 100 | 100 | 100 | 100 | – | 100 | –
6 | O=C(NCc1ccc(N2CCC(c3cc(F)cc(C(F)(F)F)c3)(C(F)(F)F)C2O)nc1C(F)(F)F)C1CC1 (mixture of isomers) [A3-247] | – | 100 | 100 | 100 | 100 | 100 | – | 100 | activity (mortality) (Ctenocephalides felis): 95%; insecticidal activity (mortality) [6, 10]: 100%; acaricidal activity [3, 10]: 100%
7 | O=C(CC(F)(F)F)NCc1ccc(N2CCC(c3cc(Cl)cc(C(F)(F)F)c3)(C(F)(F)F)C2O)nc1C(F)(F)F (racemic) [A3-271] | – | 100 | 100 | 100 | 100 | 100 | 98 | 100 | acaricidal activity [3, 10]: 100%
8 | O=C(NCc1ccc(N2CCC(c3cc(Cl)c(Cl)c(Cl)c3)(C(F)(F)F)C2O)cc1Cl)C1CC1 (centres unmarked) [A1-16] | – | 100 | – | 100 | – | 100 | – | – | activity (mortality) (Ctenocephalides felis): 90%; insecticidal activity (by feeding damage degree) (Thrips palmi; [11]): 98%; activity (mortality) (Musca domestica): 80%; insecticidal activity (mortality) [6, 11]: 100%
9 | O=C(CC(F)(F)F)NCc1ccc(N2CCC(c3cc(Cl)c(Cl)c(Cl)c3)(C(F)(F)F)C2O)cc1Cl (centres unmarked) [A1-18] | – | 100 | – | 100 | – | 100 | – | – | insecticidal activity (by feeding damage degree) (Thrips palmi; [11]): 90%; insecticidal activity (mortality) [6, 11]: 100%
10 | CN(C)C(=O)NCc1ccc(N2CCC(c3cc(Cl)cc(Cl)c3)(C(F)(F)F)C2O)cc1C(F)(F)F (centres unmarked) [A1-368] | – | – | – | – | – | – | – | – | log P ([2]; HPLC on reversed phase columns): 3.81; acaricidal activity [3, 11]: 100%
11 | CCNC(=O)NCc1ccc(N2CCC(c3cc(Cl)cc(Cl)c3)(C(F)(F)F)C2O)cc1C(F)(F)F (centres unmarked) [A1-369] | 100 | – | – | – | – | – | – | – | log P ([2]; HPLC on reversed phase columns): 3.73; acaricidal activity [3, 11]: 100%
12 | O=C(NCc1ccc(N2CCC(c3cc(Cl)c(Cl)c(Cl)c3)(C(F)(F)F)C2O)nc1Cl)C1CC1 (centres unmarked) [A3-104] | 100 | 100 | 100 | – | – | – | 98 | – | insecticidal activity (mortality) [6, 10]: 100%
13 | O=C(NCc1ccc(N2CCC(c3cc(C(F)(F)F)cc(C(F)(F)F)c3)(C(F)(F)F)C2O)nc1Cl)C1CC1 (centres unmarked) [A3-148] | – | – | – | 100 | – | 100 | – | – | insecticidal activity (by feeding damage degree) (Thrips palmi; [11]): 90%; logP [2]: 3.96
14 | O=C(NCc1cc(F)c(N2CCC(c3cc(C(F)(F)F)cc(C(F)(F)F)c3)(C(F)(F)F)C2O)nc1Cl)C1CC1 (centres unmarked) [A3-381] | – | – | 100 | – | 100 | 100 | – | – | insecticidal activity (by feeding damage degree) (Thrips palmi; [11]): 98%; activity (mortality) [8]: 80%; insecticidal activity (mortality) [6, 11]: 98%
15 | CCC(=O)NCc1cnc(N2CCC(c3cc(Cl)c(Cl)c(Cl)c3)(C(F)(F)F)C2O)nc1C(F)(F)F (centres unmarked) [A4-13] | – | – | – | – | 100 | – | 98 | – | insecticidal activity (by feeding damage degree) (Thrips palmi; [11]): 98%; insecticidal activity (mortality) [6, 11]: 90%; acaricidal activity [3, 10]: 100%
16 | CCC(=O)NCc1cnc(N2CCC(c3cc(Cl)c(F)c(Cl)c3)(C(F)(F)F)C2O)nc1C(F)(F)F (centres unmarked) [A4-101] | 100 | 100 | 100 | – | – | – | 98 | – | insecticidal activity (mortality) [6, 10]: 100%
17 | O=C(NCc1cnc(N2CCC(c3cc(Cl)c(F)c(Cl)c3)(C(F)(F)F)C2O)nc1C(F)(F)F)C1CC1 (centres unmarked) [A4-104] | 100 | 100 | 100 | – | – | – | 98 | 100 | –
18 | O=C(NCc1cnc(N2CCC(c3cc(Cl)c(F)c(Cl)c3F)(C(F)(F)F)C2O)cc1C(F)(F)F)C1CC1 (centres unmarked) [A5-82] | 100 | 100 | 100 | – | – | – | 90 | 100 | activity (mortality) (Ctenocephalides felis): 95%
